Data published in US20230312587A1, “PTERIDINONE COMPOUNDS AND USES THEREOF” (Vertex Pharmaceutical Incorporated, priority 2018, published 2023).

System: β-catenin-TCF-mediated reporter transcription activity in Colo 205 cells
Test: Colo 205 reporter assay (TCF/LEF luciferase)
Format: cell-based
Conditions: Homo sapiens, COLO 205, 5 h, Colo 205 TCF/LEF luciferase reporter, five hours after addition of compound; read-out: TCF reporter Colo205 IC50
In short: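 Luciferase signal from a TCF/LEF-driven reporter, stably integrated in Colo 205 colon cancer cells, was measured 5 h after compound addition.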

IC50, 300 to 1000 nM:
Cc1nc(NCc2ccn(Cc3ccc(C(F)(F)F)nc3)n2)nc2c1NC(=O)C1(CC(F)(F)C1)N2C [Compound 601, 3,3-difluoro-4′,8′-dimethyl-2′-(((1-((6-(trifluoromethyl)pyridin-3-yl)methyl)-1H-pyrazol-3-yl)methyl)amino)-5′,8′-dihydro-6′H-spiro[cyclobutane-1,7′-pteridin]-6′-one]
COc1cc(F)ccc1CN1CC(Nc2nc(C)c3c(n2)N(C)[C@@H](C(C)C)C(=O)N3)C1 [Compound 603, (S)-2-((1-(4-fluoro-2-methoxybenzyl)azetidin-3-yl)amino)-7-isopropyl-4,8-dimethyl-7,8-dihydropteridin-6(5H)-one]
Cc1nc(NC2CN(C(=O)CC3CC(F)(F)C3)C2)nc2c1NC(=O)[C@H](C(C)C)N2C [Compound 606, (S)-2-((1-(2-(3,3-difluorocyclobutyl)acetyl)azetidin-3-yl)amino)-7-isopropyl-4,8-dimethyl-7,8-dihydropteridin-6(5H)-one]
Cc1nc(NC2CN(C(=O)c3csc(C(F)(F)F)n3)C2)nc2c1NC(=O)[C@H](C(C)C)N2C [Compound 613, (S)-7-isopropyl-4,8-dimethyl-2-((1-(2-(trifluoromethyl)thiazole-4-carbonyl)azetidin-3-yl)amino)-7,8-dihydropteridin-6(5H)-one]
Cc1nc(NC2CN(C(=O)c3ccc(OCC(F)(F)F)nc3)C2)nc2c1NC(=O)[C@H](C(C)C)N2C [Compound 615, (S)-7-isopropyl-4,8-dimethyl-2-((1-(6-(2,2,2-trifluoroethoxy)nicotinoyl)azetidin-3-yl)amino)-7,8-dihydropteridin-6(5H)-one]
Cc1nc(NC2CN(C(=O)Cc3ccc(F)cc3F)C2)nc2c1NC(=O)[C@H](C(C)C)N2C [Compound 616, (S)-2-((1-(2-(2,4-difluorophenyl)acetyl)azetidin-3-yl)amino)-7-isopropyl-4,8-dimethyl-7,8-dihydropteridin-6(5H)-one]
Cc1nc(NC2CN(C(=O)Cc3ccc(F)cc3)C2)nc2c1NC(=O)[C@H](C(C)C)N2C [Compound 618, (S)-2-((1-(2-(4-fluorophenyl)acetyl)azetidin-3-yl)amino)-7-isopropyl-4,8-dimethyl-7,8-dihydropteridin-6(5H)-one]

IC50, 1000 to 5000 nM:
Cc1nc(NC2CN(C(=O)c3cc(C(F)(F)F)n(C)n3)C2)nc2c1NC(=O)[C@H](C(C)C)N2C [Compound 597, (S)-7-isopropyl-4,8-dimethyl-2-((1-(1-methyl-5-(trifluoromethyl)-1H-pyrazole-3-carbonyl)azetidin-3-yl)amino)-7,8-dihydropteridin-6(5H)-one]
Cc1nc(NCc2cnn(Cc3ccc(C(F)(F)F)nc3)c2)nc2c1NC(=O)C1(COC1)N2C [Compound 600, 4′,8′-dimethyl-2′-(((1-((6-(trifluoromethyl)pyridin-3-yl)methyl)-1H-pyrazol-4-yl)methyl)amino)-5′,8′-dihydro-6′H-spiro[oxetane-3,7′-pteridin]-6′-one]
Cc1nc(NCc2cnn(Cc3ccc(C(F)(F)F)nc3)c2)nc2c1NC(=O)[C@H](CO)N2C [Compound 604, (S)-7-(hydroxymethyl)-4,8-dimethyl-2-(((1-((6-(trifluoromethyl)pyridin-3-yl)methyl)-1H-pyrazol-4-yl)methyl)amino)-7,8-dihydropteridin-6(5H)-one]
Cc1nc(NC2CN(C(=O)c3cn(C)nc3C(F)(F)F)C2)nc2c1NC(=O)[C@H](C(C)C)N2C [Compound 609, (S)-7-isopropyl-4,8-dimethyl-2-((1-(1-methyl-3-(trifluoromethyl)-1H-pyrazole-4-carbonyl)azetidin-3-yl)amino)-7,8-dihydropteridin-6(5H)-one]
Cc1nc(NC2CN(C(=O)c3ccn(C(F)F)n3)C2)nc2c1NC(=O)[C@H](C(C)C)N2C [Compound 614, (S)-2-((1-(1-(difluoromethyl)-1H-pyrazole-3-carbonyl)azetidin-3-yl)amino)-7-isopropyl-4,8-dimethyl-7,8-dihydropteridin-6(5H)-one]
Cc1nc(NC2CN(C(=O)c3cc(C(C)C)on3)C2)nc2c1NC(=O)[C@H](C(C)C)N2C [Compound 619, (S)-7-isopropyl-2-((1-(5-isopropylisoxazole-3-carbonyl)azetidin-3-yl)amino)-4,8-dimethyl-7,8-dihydropteridin-6(5H)-one]

IC50, ≥ 5000 nM:
Cc1nc(NC2CN(C(=O)c3cocn3)C2)nc2c1NC(=O)[C@H](C(C)C)N2C [Compound 605, (S)-7-isopropyl-4,8-dimethyl-2-((1-(oxazole-4-carbonyl)azetidin-3-yl)amino)-7,8-dihydropteridin-6(5H)-one]
Cc1nc(C(=O)N2CC(Nc3nc(C)c4c(n3)N(C)[C@@H](C(C)C)C(=O)N4)C2)co1 [Compound 610, (S)-7-isopropyl-4,8-dimethyl-2-((1-(2-methyloxazole-4-carbonyl)azetidin-3-yl)amino)-7,8-dihydropteridin-6(5H)-one]
Cc1nc(NC2CN(C(=O)C3CCCCO3)C2)nc2c1NC(=O)[C@H](C(C)C)N2C (stereo partly drawn) [Compound 611, (7S)-7-isopropyl-4,8-dimethyl-2-((1-(tetrahydro-2H-pyran-2-carbonyl)azetidin-3-yl)amino)-7,8-dihydropteridin-6(5H)-one]
Cc1nc(NC2CN(C(=O)c3cnon3)C2)nc2c1NC(=O)[C@H](C(C)C)N2C [Compound 617, (S)-2-((1-(1,2,5-oxadiazole-3-carbonyl)azetidin-3-yl)amino)-7-isopropyl-4,8-dimethyl-7,8-dihydropteridin-6(5H)-one]

IC50, < 300 nM:
Cc1nc(N[C@H]2C[C@@H](COc3ccc(OC(F)(F)F)nc3)C2)nc2c1NC(=O)[C@H](C(C)C)N2C [Compound 598, (S)-7-isopropyl-4,8-dimethyl-2-((cis-3-(((6-(trifluoromethoxy)pyridin-3-yl)oxy)methyl)cyclobutyl)amino)-7,8-dihydropteridin-6(5H)-one]
CO[C@H](C)[C@H]1C(=O)Nc2c(C)nc(N[C@H]3C[C@H](Oc4cc(F)c(F)c(F)c4)C3)nc2N1C [Compound 599, (S)-7-((R)—1-methoxyethyl)-4,8-dimethyl-2-((trans-3-(3,4,5-trifluorophenoxy)cyclobutyl)amino)-7,8-dihydropteridin-6(5H)-one]
Cc1nc(NC2CN(C(=O)c3ccc(OC(F)(F)F)nc3)C2)nc2c1NC(=O)[C@H](C(C)C)N2C [Compound 607, (S)-7-isopropyl-4,8-dimethyl-2-((1-(6-(trifluoromethoxy)nicotinoyl)azetidin-3-yl)amino)-7,8-dihydropteridin-6(5H)-one]
Cc1nc(NCc2cnn(Cc3ccnc(Cl)c3)c2)nc2c1NC(=O)[C@H](C1CC1)N2C [Compound 608, (S)-2-(((1-((2-chloropyridin-4-yl)methyl)-1H-pyrazol-4-yl)methyl)amino)-7-cyclopropyl-4,8-dimethyl-7,8-dihydropteridin-6(5H)-one]
Cc1nc(NC2CN(C(=O)COc3ccccc3C(F)(F)F)C2)nc2c1NC(=O)[C@H](C(C)C)N2C [Compound 612, (S)-7-isopropyl-4,8-dimethyl-2-((1-(2-(2-(trifluoromethyl)phenoxy)acetyl)azetidin-3-yl)amino)-7,8-dihydropteridin-6(5H)-one]
